This is an account of results in patent US8420820B2, “Pyrrolopyridinylpyrimidin-2-ylamine derivatives” (Merck Patent GmbH, priority 2008, dated 2013).

For one experiment, the target named is T1, PDK1 (Homo sapiens, UniProt O15530).
T1 construct: His6 (N)
The experiment is described as follows: Test for the inhibition of PDK1 (flashplate, 33P-ATP). In kind it is biochemical. The note with it: His6-PDK1 3.4 nM, 4 μM ATP, 30° C., 60 min. How it is done: The experimental batches are carried out in a flashplate system with 384 wells/microtitration plate.
In each case, the PDK1 sample His6-PDK1(SEQ ID NO: 2)(1-50)(3.4 nM), the PDK1 substrate biotin-bA-bA-[…] (SEQ ID NO: 3) (400 nM), 4 μM ATP (with 0.2 μCi of ^33P-ATP/well) and the test substance in 50 μl of conventional experimental solution per well are incubated at 30° C. for 60 min. The test substances are employed in corresponding concentrations (if desired in a dilution series). The control is carried out without test substance. The reaction is stopped using standard methods and washed. The activity of the kinase is measured via the incorporated radioactivity in top count. In order to determine the non-specific kinase reaction (blank value), the experimental batches are carried out in the presence of 100 nM staurosporin.
The radioactivity (decompositions per minute) of the blank value (no use of test substance in the presence of staurosporin) is subtracted from all other radioactivity values. The controls (kinase activity without test substance) are set equal to 100 percent and all other radioactivity values (after subtracting the blank value) are expressed set in relation thereto (for example in % of the control).
IC50 values (50% inhibition) are determined with the aid of statistics programmes, such as, for example, RS1.

Experiment [1] concerns PDK1 kinase activity in PC3 cells (phospho-T308-PKB). The experiment in a line: Cellular testing of PDK1 kinase inhibitors in PC3 cells (Luminex, phospho-T308-PKB). The note with it: Homo sapiens, PC-3, 0.5 h, 30 min with test substance, serum-free, phospho-T308-PKB by Luminex, read-out: IC50 [PC3 P-PKB Thr308]. It is filed as cell-based. On the procedure:
Method for the Cellular Testing of PDK1 Kinase Inhibitors in PC3 Cells.
The cellular assay for the determination of the PDK1 kinase activity is carried out as a Luminex assay in the 96-well format. PC3 cells are sown at 20,000 cells per well in 100 μl of medium (45% of […]/45% of Ham's F12/10% of FCS) and incubated on the following day for 30 min with a serial dilution of the test substance (7 concentrations) under serum-free conditions. The cells are subsequently lysed using 90 μl of lysis buffer (20 mM tris/HCl pH 8.0, 150 mM NaCl, 1% of NP40, 10% of glycerol, 1% of phosphatase inhibitor I, 1% of phosphatase inhibitor II, 0.1% of protease inhibitor cocktail III, 0.01% of benzonase) per well, and the lysates are separated off from insoluble cell constituents by means of centrifugation through a 96-well filter plate (0.65 μm). The lysates are incubated overnight at 4° C. with shaking with Luminex beads to which an anti-total PKB antibody is coupled. The detection is carried out on the following day by addition of a phospho-T308-PKB antibody and a species-specific […] secondary antibody. The detection of phospho-T308-PKB is carried out by measurement in a Luminex100 instrument by determination of 100 events per cavity in a measurement time of 60 sec. As pharmacological blank, the signals obtained from cells which have been treated with 10 μM staurosporin are subtracted from all other batches. The control value used for maximum phosphorylation of PKB on T308 are the signals from cells which have only been treated with the solvent (0.3% of DMSO). The values of the batches treated with test substance are calculated therefrom as percentage of control, and IC50 values are determined by means of RS1.

pIC50: −log10 of the molar value.

T1 sequence (O15530 51-556): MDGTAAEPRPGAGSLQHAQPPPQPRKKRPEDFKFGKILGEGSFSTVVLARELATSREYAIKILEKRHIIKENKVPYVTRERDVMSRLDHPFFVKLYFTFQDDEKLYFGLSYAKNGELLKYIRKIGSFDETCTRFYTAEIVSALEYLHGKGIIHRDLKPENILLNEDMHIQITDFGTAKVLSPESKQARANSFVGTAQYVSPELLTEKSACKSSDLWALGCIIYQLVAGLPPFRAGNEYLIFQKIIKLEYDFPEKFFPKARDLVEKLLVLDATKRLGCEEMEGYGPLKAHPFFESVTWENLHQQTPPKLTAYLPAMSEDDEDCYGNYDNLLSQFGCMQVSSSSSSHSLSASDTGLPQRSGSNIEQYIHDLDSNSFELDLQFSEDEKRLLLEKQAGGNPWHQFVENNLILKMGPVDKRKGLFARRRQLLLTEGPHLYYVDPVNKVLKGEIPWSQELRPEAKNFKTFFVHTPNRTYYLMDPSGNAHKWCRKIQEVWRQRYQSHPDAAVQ

Consider `CCc1cc(-c2c[nH]c3ncc(-c4cnn(CCN(C)C)c4)cc23)nc(N)n1` [Compound A1, 4-{5-[1-(2-dimethylaminoethyl)-1H-pyrazol-4-yl]-1H-pyrrolo[2,3-b]pyridin-3-yl}-6-ethylpyrimidin-2-ylamine], for which the pIC50 was 6.00 to 8.00 against PDK1 and 4.70 to 5.00 in experiment [1].

`CCc1cc(-c2c[nH]c3ncc(-c4cnn(CC5CCNC5)c4)cc23)nc(N)n1` (stereo not drawn) [Compound A9]: the results for the pIC50 (on PDK1; in experiment [1]) were 6.00 to 8.00 and 4.70 to 5.00, respectively. In the same order, the values of `CCc1cc(-c2c[nH]c3ncc(-c4ccc(N5CCNCC5)nc4)cc23)nc(N)n1` [Compound A10, 4-ethyl-6-[5-(6-piperazin-1-ylpyridin-3-yl)-1H-pyrrolo[2,3-b]pyridin-3-yl]pyrimidin-2-ylamine] are 6.00 to 8.00 and 5.00 to 6.00. `CCc1cc(-c2c[nH]c3ncc(-c4cccc(C(=O)NCCN(C)C)c4)cc23)nc(N)n1` [Compound A11, 3-[3-(2-amino-6-ethylpyrimidin-4-yl)-1H-pyrrolo-[2,3-b]pyridin-5-yl]-N-(2-dimethylaminoethyl)benzamide]: the pIC50 on PDK1 was 6.00 to 8.00; in experiment [1], 4.70 to 5.00. The like results for `CCc1cc(-c2c[nH]c3ncc(-c4cnn(CC(=O)N5CCN(C)CC5)c4)cc23)nc(N)n1` [Compound A29, 2-{4-[3-(2-Amino-6-ethylpyrimidin-4-yl)-1H-pyrrolo[2,3-b]pyridin-5-yl]pyrazol-1-yl}-1-(4-methylpiperazin-1-yl)ethanone] were, in that order, 6.00 to 8.00 and 4.70 to 5.00.

For the compound `CCc1cc(-c2c[nH]c3ncc(-c4cnn(CC(=O)NC5CCN(C)CC5)c4)cc23)nc(N)n1` [Compound A30, 2-{4-[3-(2-Amino-6-ethylpyrimidin-4-yl)-1H-pyrrolo[2,3-b]pyridin-5-yl]pyrazol-1-yl}-N-(1-methylpiperidin-4-yl)acetamide], the pIC50 on PDK1 is 6.00 to 8.00; in experiment [1], 4.70 to 5.00. The like results for `CCc1cc(-c2c[nH]c3ncc(-c4cnn(CC(=O)O)c4)cc23)nc(N)n1` [Compound A31, {4-[3-(2-Amino-6-ethylpyrimidin-4-yl)-1H-pyrrolo[2,3-b]pyridin-5-yl]pyrazol-1-yl}acetylic acid] were, in that order, 6.00 to 8.00 and 4.70 to 5.00. `Nc1nc(CCCCO)cc(-c2c[nH]c3ncccc23)n1` [Compound A45, 4-[2-Amino-6-(1H-pyrrolo[2,3-b]pyridin-3-yl)pyrimidin-4-yl]butan-1-ol] had a pIC50 against PDK1 of 5.00 to 6.00. `CCc1cc(-c2c[nH]c3ncc(-c4cnn(C(C)C)c4)cc23)nc(NC)n1` [Compound A60, {4-Ethyl-6-[5-(1-isopropyl-1H-pyrazol-4-yl)-1H-pyrrolo[2,3-b]pyridin-3-yl]-pyrimidin-2-yl}methylamine]: the pIC50 on PDK1 is 6.00 to 8.00.

On PDK1, `CCc1cc(-c2c[nH]c3ncc(-c4cnn(CCN(C)C)c4)cc23)nc(NC)n1` [Compound A61, (4-{5-[1-(2-Dimethylaminoethyl)-1H-pyrazol-4-yl]-1H-pyrrolo[2,3-b]pyridin-3-yl}-6-ethylpyrimidin-2-yl)methylamine] gave a pIC50 of 6.00 to 8.00. Still for that read-out and setting: the result for `CCc1cc(-c2c[nH]c3ncc(-c4cn[nH]c4)cc23)nc(NC)n1` [Compound A62, {4-Ethyl-6-[5-(1H-pyrazol-4-yl)-1H-pyrrolo[2,3-b]pyridin-3-yl]pyrimidin-2-yl}-methylamine] reads 6.00 to 8.00; that for `CCc1cc(-c2c[nH]c3ncc(-c4cnn(C)c4)cc23)nc(NC)n1` [Compound A63, {4-Ethyl-6-[5-(1-methyl-1H-pyrazol-4-yl)-1H-pyrrolo[2,3-b]pyridin-3-yl]-pyrimidin-2-yl}methylamine], 6.00 to 8.00. `CCc1cc(-c2c[nH]c3ncc(-c4cnn(C5CCNCC5)c4)cc23)nc(NC)n1` [Compound A64, {4-Ethyl-6-[5-(1-piperidin-4-yl-1H-pyrazol-4-yl)-1H-pyrrolo[2,3-b]pyridin-3-yl]pyrimidin-2-yl}methylamine]: the pIC50 on PDK1 was 6.00 to 8.00.

For `CCc1cc(-c2c[nH]c3ncc(-c4cnn(CC(=O)N5CCCCC5)c4)cc23)nc(NC)n1` [Compound A65, 2-{4-[3-(6-Ethyl-2-methylaminopyrimidin-4-yl)-1H-pyrrolo[2,3-b]pyridin-5-yl]-pyrazol-1-yl}-1-piperidin-1-ylethanone], at PDK1, the pIC50 is 6.00 to 8.00. The same measure, in the same setting: the result for `CCc1cc(-c2c[nH]c3ncc(-c4cnn(CC(=O)N5CCCC5)c4)cc23)nc(NC)n1` [Compound A66, 2-{4-[3-(6-Ethyl-2-methylaminopyrimidin-4-yl)-1H-pyrrolo[2,3-b]pyridin-5-yl]-pyrazol-1-yl}-1-pyrrolidin-1-ylethanone] reads 6.00 to 8.00; that for `CCCCc1cc(-c2c[nH]c3ncc(-c4cnn(CCO)c4)cc23)nc(NC)n1` [Compound A67, 2-{4-[3-(6-Butyl-2-methylaminopyrimidin-4-yl)-1H-pyrrolo[2,3-b]pyridin-5-yl]-pyrazol-1-yl}ethanol], 6.00 to 8.00. Still for that read-out and setting: the result for `CCc1cc(-c2c[nH]c3ncc(-c4cnn(CCO)c4)cc23)nc(NC)n1` [Compound A68, 2-{4-[3-(6-Ethyl-2-methylaminopyrimidin-4-yl)-1H-pyrrolo[2,3-b]pyridin-5-yl]-pyrazol-1-yl}ethanol] reads 6.00 to 8.00; that for `CCCCc1cc(-c2c[nH]c3ncc(-c4cnn(C5CCNCC5)c4)cc23)nc(NC)n1` [Compound A70, {4-Butyl-6-[5-(1-piperidin-4-yl-1H-pyrazol-4-yl)-1H-pyrrolo[2,3-b]pyridin-3-yl]pyrimidin-2-yl}methylamine], 6.00 to 8.00; that for `CCCCc1cc(-c2c[nH]c3ncc(-c4cnn(C5CCN(C)CC5)c4)cc23)nc(NC)n1` [Compound A71, (4-Butyl-6-{5-[1-(1-methylpiperidin-4-yl)-1H-pyrazol-4-yl]-1H-pyrrolo[2,3-b]-pyridin-3-yl}pyrimidin-2-yl)methylamine], 6.00 to 8.00. Still for that read-out and setting: the result for `CCc1cc(-c2c[nH]c3ncc(-c4cnn(C(C)C(=O)Nc5ccc6[nH]ccc6c5)c4)cc23)nc(NC)n1` (stereo not drawn) [Compound A72, 2-{4-[3-(6-Ethyl-2-methylaminopyrimidin-4-yl)-1H-pyrrolo[2,3-b]pyridin-5-yl]-pyrazol-1-yl}-N-(1H-indol-5-yl)propionamide] reads 6.00 to 8.00.

In the case of `CCc1cc(-c2c[nH]c3ncc(-c4cnn(CC(=O)N5CCCc6ccccc65)c4)cc23)nc(NC)n1` [Compound A73, 1-(3,4-Dihydro-2H-quinolin-1-yl)-2-{4-[3-(6-ethyl-2-methylaminopyrimidin-4-yl)-1H-pyrrolo[2,3-b]pyridin-5-yl]pyrazol-1-yl}ethanone], on PDK1, the pIC50 is 6.00 to 8.00.

On PDK1, `COc1nc(Cc2ccccc2)cc(-c2c[nH]c3ncc(-c4cnn(C(C)C)c4)cc23)n1` [Compound A74, 3-(6-Benzyl-2-methoxypyrimidin-4-yl)-5-(1-isopropyl-1H-pyrazol-4-yl)-1H-pyrrolo[2,3-b]pyridine] showed a pIC50 of 5.00 to 6.00. In the case of `CCc1cc(-c2c[nH]c3ncc(-c4cnn(C(C)C)c4)cc23)nc(OC)n1` [Compound A75, 3-(6-Ethyl-2-methoxypyrimidin-4-yl)-5-(1-isopropyl-1H-pyrazol-4-yl)-1H-pyrrolo[2,3-b]pyridine], the pIC50 against PDK1 is 6.00 to 8.00.

For the compound `Nc1nc(CCC(=O)N2CCOCC2)cc(-c2c[nH]c3ncccc23)n1` [Compound A82, 3-[2-Amino-6-(1H-pyrrolo[2,3-b]pyridin-3-yl)pyrimidin-4-yl]-1-morpholin-4-ylpropan-1-one], the pIC50 on PDK1 is 5.00 to 6.00.

`CN(C)CCNC(=O)CCc1cc(-c2c[nH]c3ncccc23)nc(N)n1` [Compound A83, 3-[2-Amino-6-(1H-pyrrolo[2,3-b]pyridin-3-yl)pyrimidin-4-yl]-N-(2-dimethylaminoethyl)propionamide] had a pIC50 against PDK1 of 5.00 to 6.00. As to `CC(C)Cn1cc(-c2cnc3[nH]cc(-c4cc(CCCN)nc(N)n4)c3c2)cn1` [Compound A84, 4-(3-Aminopropyl)-6-[5-(1-isobutyl-1H-pyrazol-4-yl)-1H-pyrrolo[2,3-b]pyridin-3-yl]pyrimidin-2-ylamine], the pIC50 at PDK1 is 6.00 to 8.00.
